The results in this text go back to PMC4108065, “Inflammation and pancreatic cancer: molecular and functional interactions between S100A8, S100A9, NT-S100A8 and TGFβ1” (Cell Communication and Signaling : CCS, 2014).

Common to all, as to assay type: cell-based, human
Experiment [1] has as its system MiaPaCa2. Kind of experiment: XTT cell viability assay, MiaPaCa2. As to conditions: 48 hours, TGFβ1 0.02 ng/ml, NT-S100A8 50 nM, S100A8 10 nM, S100A9 10 nM, alone or combined, at least three independent experiments in quadruplicate. As for the experimental part: (§1) BxPC3, Capan1, MiaPaCa2, Panc1 and BxPC3-SMAD4+ cells were seeded (2000 cells per well) in 96-well cell culture plates and cultured in complete media for 24 hours. Media were then replaced with fresh cell culture media in absence (control) or in presence of TGFβ1 (0.02 ng/ml) and NT-S100A8 (50 nM), alone or combined or in absence (control) or in presence of TGFβ1 (0.02 ng/ml), S100A8 (10 nM) and S100A9 (10 nM) alone or combined. Cell growth was assessed after 48 hours using the XTT cell viability test (Roche, Milano, Italy). At least three independent experiements, each made in quadruplicate, were run. The results were expressed as percentage with respect to the median Abs450nm of control cells run in the same experimental set.
Background: Tetrazolium assays rely on reduction of a dye to a coloured formazan, in cell work by metabolically active cells.

Experiment [2] relates to Smad4 silenced MiaPaCa2 IκBα and S6RP phosphorylation. Kind of experiment: Signaling western blot in Smad4 silenced MiaPaCa2. The conditions noted are these: Smad4-siRNA MiaPaCa2 vs MiaPaCa2, 10 minutes, 0.02 ng/ml TGFβ1, 10 nM S100A8, 50 nM NT-S100A8; for effect of Smad4 silencing on inhibition of NF-κB: IκBα Ser32 western blot; for effect of silenced Smad4 on S6RP phosphorylation: western blot. The procedure: The pancreatic cancer cell lines used were: Panc1 and Suit2, donated by Prof Aldo Scarpa (University of Verona, Italy); BxPC3, from Dr Andrea Galli (University of Florence, Italy); MiaPaCa2, Capan1 and the human embryonic kidney Hek293 cell lines, supplied by the American Type Culture Collection (Manassas, VA, USA). BxPC3, Capan1 and Panc1 were cultured in RPMI (Gibco/BRL, Gaithhersburg, MD, USA) supplemented with 10% (BxPC3 and Panc1) and 20% (Capan1) fetal calf serum (FCS) (Gibco/BRL), 1% L-glutamine (Gibco/BRL) and 0.1% gentamycin (Gibco/BRL). MiaPaCa2 and Hek293 were cultured in DMEM (Gibco/BRL) supplemented with 10% FCS, 2% L-glutamine and 0.1% Gentamycin. BxPC3 cells were transfected with the expression vector pBK-cytomegalovirus (CMV)-SMAD4/DPC4, as previously described. One SMAD4/DPC4-expressing clone (BxPC3-SMAD4+) was used for the experiments. Smad4 silencing of MiaPaCa2 cells was performed as previously described.
Five million cells were seeded in Petri dishes (ø 10 cm) and cultured for 24 hours in their respective complete media prior to starting the experiments. Cells remained non-stimulated (negative control) or were stimulated with 50 mU insulin (positive control) (Insuman Rapid, Sanofi-Aventis, Deutschland, GmbH) for 10 min; in parallel, experimental cells were stimulated with 50 nM NT-S100A8, 0,02 ng/ml TGFβ1 (ProSpec-Tany TechnoGene), 10 nM S100A8 and 10 nM S100A9 alone or combined for 10 min. Following stimulations, Petri dishes were immediately transferred into an ice bath, and the cells were washed twice with cold PBS, re-suspended in 100 μl of cold lysis buffer [20 mM Tris–HCl, pH 7.5, 150 mM NaCl, 1 mM EDTA, 1% Triton-X 100, 50 mM NaF, 10 mM Na4P2O7,1 mM Na3VO4, and 10% protease inhibitor cocktail (Sigma Aldrich SRL, Milano, Italy)]. Lysates were centrifuged for 10 min at 14,000 rpm at 4°C and, in the supernatants, total proteins were measured using the Bio-Rad protein assay (Bio-Rad Laboratories, Milano, Italy). Each experiment was performed at least in triplicate.
For each sample, 40 μg proteins were electrophoresed through 4–12% NuPAGE®NovexBis-Tris SDS–PAGE Gel or 3-8% NuPAGE®NovexTris-Acetate SDS–PAGE Gel (Invitrogen S.R.L., Life Technologies, Monza, Italy) and electrophoretically transferred to Nitrocellulose Membrane (iBlot® Transfer Stack, Invitrogen S.R.L.) by means of the iBlotTMDry Blotting System (Invitrogen S.R.L.). Following incubation for 1 hour in a blocking buffer [5% low fat powder milk re-suspended in PBS-T (PBS with 0.1% Tween-20)], membranes were incubated overnight at 4°C with the primary antibodies [antiphospho IkB-α (Ser^32) (Santa Cruz Biotechnology, Inc., Santa Cruz, CA, USA); anti-phospho-Akt (Ser^473), anti-phospho-Akt (Thr^308), anti-Akt and anti-phospho-S6 Ribosomal Protein (Ser^235/236), anti-cleaved Caspase-3, anti-phospho-Stat3 Tyr^705, anti-β-actin, anti-phospho mTOR (Ser^2448, Ser^2481) (Cell Signaling Technology, Danvers, MA, USA); anti-RAGE (R&D Systems, Minneapolis, MN, USA) ] diluted 1:5000 (β-actin), 1:2000 (mTOR, cleaved Caspase-3, Stat3) or 1:3000 (all the others) in the blocking buffer. The blots, washed three times in PBS-T for 15 min, were incubated with […] anti-rabbit (Cell Signaling Technology) or anti-goat (Sigma Aldrich) secondary antibodies and then washed three times in PBS-T for 15 min and developed with the ECL Advance Western Blot Detection Kit (GE Healthcare Technologies, Milan, Italy).

In experiment [3] the test system is Capan1. Kind of experiment: XTT cell viability assay, Capan1. As to conditions: 48 hours, TGFβ1 0.02 ng/ml, NT-S100A8 50 nM, S100A8 10 nM, S100A9 10 nM, alone or combined, at least three independent experiments in quadruplicate. As for the experimental part: as §1

Turning to “S100A8: inflammatory calcium binding protein S100A8 (ProSpec-Tany TechnoGene)”, the “MiaPaCa2 % to Control Mean± SEM” value in experiment [1] was 102.13± 4.93 % to Control. In experiment [2], the “effect of Smad4 silencing on inhibition of NF-κB” value is “reduced the inhibition of NF-κB” and the “effect of silenced Smad4 on S6RP phosphorylation” value (from here on “effect of silenced Smad4”) is given as “markedly reduced S6RP phosphorylation”. Further, the “Capan1 % to Control Mean± SEM” value in experiment [3] is given as 96.22 ± 2.91 % to Control.

Consider “TGFβ1: transforming growth factor beta 1 (ProSpec-Tany TechnoGene)”, for which the “MiaPaCa2 % to Control Mean± SEM” value in experiment [1] was 102.11 ± 4.65 % to Control. Besides, in experiment [2], the “effect of Smad4 silencing on inhibition of NF-κB” value is reported as “reduced the inhibition of NF-κB” and the “effect of silenced Smad4” value is listed as “markedly reduced S6RP phosphorylation”. Also, the “Capan1 % to Control Mean± SEM” value in experiment [3] is given as 104.31 ± 2.68 % to Control.

As to “S100A9: inflammatory calcium binding protein S100A9, S100A8 binding partner”, in experiment [1], the “MiaPaCa2 % to Control Mean± SEM” value is on record as 104.38± 4.09 % to Control. Moreover, the “Capan1 % to Control Mean± SEM” value in experiment [3] is 103.07 ± 2.90 % to Control.

Take “NT-S100A8: 14 N-terminal aminoacid peptide of S100A8, isolated from PDAC tissues (MLTELEKALNSIID; UniProt P05109 1-14, looked up, fragment)”: the “effect of silenced Smad4” value in experiment [2] is on record as “markedly reduced S6RP phosphorylation”.
